Measurements: patent US4220587A, “Amino acid derivatives of 6-(2-amino-2-arylacetamido)penicillanic acids” (Mitsubishi Chemical Industries, Limited, priority 1975, dated 1980)
Converted amounts (≈) assume the structure as drawn. Read-outs that look alike come from different tables or passages of the source.

Columns and labels:
Format in all cases: cell-based
[1] = test system: Salmonella typhimurium (TA 100); assay: MIC, agar dilution, Salmonella typhimurium; details: Salmonella enterica, read-out: Minimum Inhibitory Concentration (MIC)
Experimental: (§1) The compounds of this invention were tested for antibacterial activity according to the following procedure. Nutrient broth and nutrient agar were prepared according to the conventional procedure. […] was used as a vehicle. The stock solution was prepared at 100 μg/ml of the test material in the vehicle. Two-fold dilutions were made with the vehicle and then the diluted stock solution was added to a petri dish and solidified by chilling. Test organisms were grown in the nutrient broth for 20 hours at 37° C. The hardened surface was inoculated with a loopful of the test organism solution containing 1×10^6 cells per milliliter and incubated for 20 hours at 37° C. At the end of this period, growth of the organism was observed. […] The following Table 1 summarizes the activity of representative compounds as active antibacterial agents, and compares them with the prior art compounds and the reference drug Sulbenicillin.

Pseudomonas aeruginosa = assay: MIC, agar dilution, Pseudomonas aeruginosa (strain not given); details: ATCC 15691 / ATCC 15692, 20 h, read-out: Minimum Inhibitory Concentration (MIC)
Experimental: as §1

[2] = test system: Proteus vulgaris (IFO 3045); assay: MIC, agar dilution, Proteus vulgaris; details: read-out: Minimum Inhibitory Concentration (MIC)
Experimental: as §1

[3] = test system: Proteus morgani (IFO 3848); assay: MIC, agar dilution, Proteus morgani; details: Morganella morganii, read-out: Minimum Inhibitory Concentration (MIC)
Experimental: as §1

E. coli (NIHJ) = assay: MIC, agar dilution, E. coli; details: Escherichia coli, read-out: Minimum Inhibitory Concentration (MIC)
Experimental: as §1

[4] = test system: Proteus mirabilis (IFO 3849); assay: MIC, agar dilution, Proteus mirabilis; details: read-out: Minimum Inhibitory Concentration (MIC)
Experimental: as §1

Staph. aureus (FDA 209P) = assay: MIC, agar dilution, Staph. aureus; details: Staphylococcus aureus, FDA209P, read-out: Minimum Inhibitory Concentration (MIC)
Experimental: as §1

[5] = test system: Klebsiella pneumoniae (ATCC 25955); assay: MIC, agar dilution, Klebsiella pneumoniae; details: read-out: Minimum Inhibitory Concentration (MIC)
Experimental: as §1

[6] = test system: Pseudomonas aeruginosa M-11; assay: MIC, agar dilution, Pseudomonas aeruginosa M-11; details: 20 h, read-out: Minimum Inhibitory Concentration (MIC)
Experimental: as §1
^*1 streptomycin resistant strain derived from Pseudomonas aeruginosa

[7] = test system: Pseudomonas aeruginosa (ATCC 15691); assay: MIC, agar dilution, Pseudomonas aeruginosa ATCC 15691; details: ATCC15691, P. aeruginosa ATCC 15691, nutrient agar, 20 hours at 37° C., read-out: Minimum Inhibitory Concentration (MIC)
Experimental: as §1

[8] = test system: Pseudomonas aeruginosa M-12; assay: MIC, agar dilution, Pseudomonas aeruginosa M-12; details: ATCC15692, 20 h, read-out: Minimum Inhibitory Concentration (MIC)
Experimental: as §1
^*2 chloramphenicol resistant strain derived from Pseudomonas

[9] = test system: Pseudomonas aeruginosa M-16; assay: MIC, agar dilution, Pseudomonas aeruginosa M-16; details: M16, 20 h, read-out: Minimum Inhibitory Concentration (MIC)
Experimental: as §1
^*3 streptomycin, chloramphenicol and mercury resistant strain derive

[10] = Proteus vulgaris, IFO3045, 20 h
[11] = Proteus mirabilis, IFO3849, 20 h

Cc1ccc(S(=O)(=O)N(C)[C@H](C)C(=O)N[C@@H](C(=O)N[C@@H]2C(=O)N3[C@@H]2SC(C)(C)[C@@H]3C(=O)O)c2ccccc2)cc1 [Compound 17]
MIC ([1]; Salmonella typhimurium TA 100, ampicillin resistant strain, nutrient agar, 20 hours at 37° C.): 12.5 µg/mL (≈ 21.2 µM) | MIC (Pseudomonas aeruginosa): 25 µg/mL (≈ 42.5 µM) | MIC [2, 10]: 12.5 µg/mL (≈ 21.2 µM) | MIC ([3]; IFO3848, 20 h): 9 µg/mL (≈ 15.3 µM) | MIC (E. coli (NIHJ); 20 h): 25 µg/mL (≈ 42.5 µM) | MIC [4, 11]: 12.5 µg/mL (≈ 21.2 µM) | MIC (Staph. aureus (FDA 209P); 20 h): 0.15 µg/mL (≈ 0.255 µM)

CC1(C)S[C@@H]2[C@H](NC(=O)[C@H](NC(=O)[C@H]3CCCCN3C(=O)OCc3ccccc3)c3ccccc3)C(=O)N2[C@H]1C(=O)O [Compound 9]
MIC (Staph. aureus (FDA 209P); 20 h): 0.62 µg/mL (≈ 1.04 µM)

Cc1ccc(S(=O)(=O)N(C)[C@@H](C(=O)N[C@@H](C(=O)N[C@@H]2C(=O)N3[C@@H]2SC(C)(C)[C@@H]3C(=O)O)c2ccccc2)c2ccccc2)cc1 [Compound 26]
MIC (Staph. aureus (FDA 209P); 20 h): 0.62 µg/mL (≈ 0.953 µM)

CC1(C)S[C@@H]2[C@H](NC(=O)[C@H](NC(=O)[C@H]3CCCCN3C(N)=O)c3ccccc3)C(=O)N2[C@H]1C(=O)O [Compound 10]
MIC (Staph. aureus (FDA 209P); 20 h): 0.31 µg/mL (≈ 0.616 µM)

CC1(C)S[C@@H]2[C@H](NC(=O)[C@H](NC(=O)C3CCCCN3)c3ccccc3)C(=O)N2[C@H]1C(=O)O (stereo partly shown) [Compound 13]
MIC (Staph. aureus (FDA 209P); 20 h): 3.75 µg/mL (≈ 8.14 µM)

CC1(C)S[C@@H]2[C@H](NC(=O)[C@H](NC(=O)C3CCCCN3C(N)=O)c3ccccc3)C(=O)N2[C@H]1C(=O)O (stereo partly shown) [Compound 11]
MIC (Staph. aureus (FDA 209P); 20 h): 0.31 µg/mL (≈ 0.616 µM)

CC1(C)S[C@@H]2[C@H](NC(=O)[C@H](NC(=O)[C@@H]3CCCN3C(=O)OCc3ccccc3)c3ccc(O)cc3)C(=O)N2[C@H]1C(=O)O [Compound 6]
MIC (Staph. aureus (FDA 209P); 20 h): 1.25 µg/mL (≈ 2.09 µM)

Cc1ccc(S(=O)(=O)N(C)[C@H](CC(C)C)C(=O)N[C@@H](C(=O)N[C@@H]2C(=O)N3[C@@H]2SC(C)(C)[C@@H]3C(=O)O)c2ccccc2)cc1 [Compound 23]
MIC (Staph. aureus (FDA 209P); 20 h): 0.62 µg/mL (≈ 0.983 µM)

CN[C@H](CC(C)C)C(=O)N[C@@H](C(=O)N[C@@H]1C(=O)N2[C@@H]1SC(C)(C)[C@@H]2C(=O)O)c1ccccc1 [Compound 27]
MIC (Staph. aureus (FDA 209P); 20 h): 0.62 µg/mL (≈ 1.3 µM)

CC1(C)S[C@@H]2[C@H](NC(=O)[C@H](NC(=O)[C@H]3CCCCN3)c3ccc(O)cc3)C(=O)N2[C@H]1C(=O)O [Compound 7]
MIC ([5]; Klebsiella pneumoniae, ATCC25955, 20 h): 9 µg/mL (≈ 18.9 µM) | MIC [2, 10]: < 6.2 µg/mL | MIC ([3]; IFO3848, 20 h): < 6.2 µg/mL | MIC (E. coli (NIHJ); 20 h): 25 µg/mL (≈ 52.5 µM) | MIC [4, 11]: 9 µg/mL (≈ 18.9 µM) | MIC (Staph. aureus (FDA 209P); 20 h): 1.25 µg/mL (≈ 2.62 µM)

CC1(C)S[C@@H]2[C@H](NC(=O)[C@H](NC(=O)C3Cc4ccccc4CN3)c3ccccc3)C(=O)N2[C@H]1C(=O)O (stereo partly shown) [Compound 16]
MIC (Staph. aureus (FDA 209P); 20 h): 0.46 µg/mL (≈ 0.904 µM)

CC1(C)S[C@@H]2[C@H](NC(=O)[C@H](NC(=O)C3NCc4ccccc43)c3ccccc3)C(=O)N2[C@H]1C(=O)O (stereo partly shown) [Compound 14]
MIC (Staph. aureus (FDA 209P); 20 h): 0.31 µg/mL (≈ 0.627 µM)

CC(C)C[C@H](C(=O)N[C@@H](C(=O)N[C@@H]1C(=O)N2[C@@H]1SC(C)(C)[C@@H]2C(=O)O)c1ccccc1)N(C)C(=O)OCc1ccccc1 [Compound 24]
MIC ([1]; TYPHIMURIUM, 20 h): < 6.25 µg/mL | MIC (Pseudomonas aeruginosa): 100 µg/mL (≈ 164 µM) | MIC [2, 10]: 100 µg/mL (≈ 164 µM) | MIC ([3]; IFO3848, 20 h): 100 µg/mL (≈ 164 µM) | MIC (E. coli (NIHJ); 20 h): 50 µg/mL (≈ 81.9 µM) | MIC [4, 11]: 100 µg/mL (≈ 164 µM) | MIC (Staph. aureus (FDA 209P); 20 h): 0.62 µg/mL (≈ 1.02 µM)

CC1(C)S[C@@H]2[C@H](NC(=O)C(c3ccccc3)S(=O)(=O)O)C(=O)N2[C@H]1C(=O)O (stereo partly shown) [sulpenicillin, reference compound]
MIC [6]: 25 µg/mL (≈ 60.3 µM) | MIC ([5]; ATCC25955, Klebsiella pneumoniae ATCC 25955, nutrient agar, 20 hours at 37° C.): > 100 µg/mL | MIC ([2]; IFO3045, Proteus vulgaris IFO 3045, nutrient agar, 20 hours at 37° C.): < 3.1 µg/mL | MIC ([3]; IFO3848, Proteus morgani IFO 3848, nutrient agar, 20 hours at 37° C.): < 3.1 µg/mL | MIC [7]: 50 µg/mL (≈ 121 µM) | MIC [8]: 25 µg/mL (≈ 60.3 µM) | MIC (E. coli (NIHJ); E. coli NIHJ, nutrient agar, 20 hours at 37° C.): 1.25 µg/mL (≈ 3.02 µM) | MIC ([4]; IFO3849, Proteus mirabilis IFO 3849, nutrient agar, 20 hours at 37° C.): < 3.1 µg/mL | MIC [9]: 25 µg/mL (≈ 60.3 µM) | MIC (Staph. aureus (FDA 209P); Staph. aureus FDA 209P, nutrient agar, 20 hours at 37° C.): 3.25 µg/mL (≈ 7.84 µM)
